Patent publication EP0607129B1, “METHYLPIPERAZINOAZEPINE DERIVATIVES, THEIR PREPARATION AND USE” ("THERABEL RESEARCH SA/NV", priority 1991, dated 1993)

Tests used:
[1] = tested on: apomorphine; test: In vivo apomorphine antagonism test
[2] = tested on: récepteurs muscariniques; set-up: species or system rat CFY; settings: 1,5 nM (³H) QNB; rat brain homogenate without cerebellum; 25°C, 60 minutes; non-specific binding with atropine 10⁻⁵M; test concentration not given
[3] = Catalepsy test (extrapyramidal side effects); format: in vivo; settings: for catalepsie pour des doses supérieures à: dose above which catalepsy is seen; for léger / faible effet cataleptique à partir de: dose from which a slight (léger, faible) cataleptic effect is seen
From the text: Voir notamment GRAY W.D., OSTERBERG A.C., RAUH C.E., Arch. Int. Pharmacodyn. 134, 198, 1961 et COSTALL B., OLLEY J.E., Neuropharmacology 10, 297, 1971.
Ce test est représentatif des effets extrapyramidaux présents dans de nombreux neuroleptiques (effet secondaire non souhaitable). Les composés de l'invention provoquent très peu de catalepsie et paraissent donc dénués de cet effet secondaire non souhaitable.

[4] = graded + to +++++, 20 mg/kg for the compounds

For `O=C(CCCN1CCC(O)(c2ccc(Cl)cc2)CC1)c1ccc(F)cc1` [Halopéridol, reference compound], the “Test d'antagonisme a l'apomorphine: intensité de l'activité” value (shortened to “Test d'antagonisme a l'apomorphine”) ([1]; halopéridol at 0,63 mg/kg) was “+++++”.
For `CN1CCN(C2=Nc3cccnc3Nc3ccc(F)cc32)CC1` [Exemple 13, 8-fluoro-6-(4-méthylpipérazin-1-yl)-11H-pyrido(2,3-b)benzo-1,4-diazépine], the “Test d'antagonisme a l'apomorphine” value [1, 4] was “+”.
In the case of `CN1CCN(C2=Nc3ccccc3Nc3ccncc32)CC1` [Exemple 1, 11-(4-méthylpipérazin-1-yl)-5H-pyrido(4,3-b)benzo-1,5-diazépine], the “Inhibition, % (binding de ³H QNB)” value [2] was 4,48% and the “catalepsie pour des doses supérieures à” value [3] was > 40 mg/kg.
In the case of `CN1CCN(C2=Nc3cccnc3Oc3ccccc32)CC1.O=C(O)/C=C/C(=O)O` [Exemple 7, Fumaratede 6-(4-méthylpipérazin-1-yl)pyrido(2,3-b)benzo-1,4-oxazépine], the “Test d'antagonisme a l'apomorphine” value [1, 4] was “+”.
For `CN1CCN(C2=Nc3cccnc3Sc3ccc(Cl)cc32)CC1.O=C(O)/C=C/C(=O)O` [Exemple 3, Fumaratede 8-chloro-6-(4-méthylpipérazin-1-yl)pyrido(2,3-b)benzo-1,4-thiazépine], the “catalepsie pour des doses supérieures à” value [3] was > 40 mg/kg.
For `CN1CCN(C2=Nc3cccnc3N(C=O)c3ccccc32)CC1` [Exemple 17, 11-formyl-6-(4-méthylpipérazin-1-yl)-11H-pyrido(2,3-b)benzo-1,4-diazépine], the “Inhibition, % (binding de ³H QNB)” value [2] was 43,38%.
With `Cc1ccc2c(c1)C(N1CCN(C)CC1)=Nc1cccnc1N2` [Exemple 11, 6-(4-méthylpipérazin-1-yl)-8-méthyl-11H-pyrido(2,3-b)benzo-1,4-diazépine] the “Inhibition, % (binding de ³H QNB)” value [2] was 67,3%.
For `CN1CCN(C2=Nc3ccccc3Oc3ncccc32)CC1.O=C(O)/C=C\C(=O)O` [Exemple 4, Maléatede 5-(4-méthylpipérazin-1-yl)pyrido(2,3-b)benzo-1,5-oxazépine], the “léger / faible effet cataleptique à partir de” value [3] was ≥ 20 mg/kg.
For `CN1CCN(C2=Nc3cccnc3Nc3cc(Cl)ccc32)CC1` [Exemple 12, 9-chloro-6-(4-méthylpipérazin-1-yl)-11H-pyrido(2,3-b)benzo-1,4-diazépine], the “Test d'antagonisme a l'apomorphine” value [1, 4] was “+”.
For `CN1CCN(C2=Nc3cnccc3Sc3ccccc32)CC1` [Exemple 18, 10-(4-méthylpipérazin-1-yl)pyrido(4,3-b)benzo-1,4-thiazépine], the “Inhibition, % (binding de ³H QNB)” value [2] was 57,61%.
With `CN1CCN(C2=Nc3cc(Cl)ccc3Nc3ccccc32)CC1` [Clozapine, reference compound] the “léger / faible effet cataleptique à partir de” value [3] was ≥ 20 mg/kg and the “Test d'antagonisme a l'apomorphine” value ([1]; clozapine at 20 mg/g (so in the source)) was “+”.
In the case of `CN1CCN(C2=Nc3ccccc3Sc3ccc(Cl)cc32)CC1` [Clothiapine, reference compound], the “Inhibition, % (binding de ³H QNB)” value [2] was 38,05%.
For `CN1CCN(C2=Nc3cc(Cl)ccc3Oc3ncccc32)CC1.O=C(O)/C=C/C(=O)O` [Exemple 5, Fumaratede 8-chloro-5-(4-méthylpipérazin-1-yl)pyrido(2,3-b)benzo-1,5-oxazépine], the “Test d'antagonisme a l'apomorphine” value [1, 4] was “+”.
For `CN1CCN(C2=Nc3cccnc3Nc3ccc(Cl)cc32)CC1` [Exemple 10, 8-chloro-6-(4-méthylpipérazin-1-yl)-11H-pyrido(2,3-b)benzo-1,4-diazépine], the “Inhibition, % (binding de ³H QNB)” value [2] was 62,08%.
